Data set [1] concerns thermal C-fiber pain pathway. Nature of the data set: Hotplate test (thermal withdrawal latency) after direct intrathecal injection of volatile anesthetic. The conditions noted are these: smallest intrathecally delivered dose of 2 microliters.
The subject of data set [2] is thermal C-fiber pain pathway. Nature of the data set: Hotplate test after intrathecal isoflurane dissolved in artificial cerebrospinal fluid (ACSF). The format is in vivo, rat. The procedure: Pain sensitivity was measured after intrathecal administration of isoflurane in artificial cerebrospinal fluid (ACSF). Further, as detailed below, the isoflurane was first dissolved in ACSF and then sonicated before administration. The dose response relationship was then evaluated by generating a stimulus-response (SR) graph in order to determine relevant concentrations of isoflurane that may be administered intrathecally to achieve analgesia or anesthesia. The characterization of the pharmacological profile of intrathecal administration of isoflurane in ACSF was performed in this example using rats; further, as would be appreciated by one of skill in the art, analogous approaches may be used to determine the precise pharmacological profile in humans. Isoflurane dissolved in ACSF was prepared by the following method. […] The dose response relationship was then evaluated by generating a stimulus-response (SR) graph in order to standardize responses across animals and determine relevant concentrations of isoflurane that may be administered intrathecally to achieve analgesia or anesthesia. […] MPE is calculated as ((drug response time—baseline response time)/(cutoff time−baseline response time))*100. […]

Data set [3] concerns thermal C-fiber pain pathway. Nature of the data set: Hotplate test after intrathecal injection of isoflurane dissolved in saline (Study C). The conditions noted are these: 5 microliter isoflurane dissolved in saline. Format: in vivo, rat. The procedure: Isoflurane was dissolved into saline using the following method (also referred to as the “bubbling” method). Study C: A mock vaporizing device was created using a 500 ml modified Erlenmeyer flask (2 inlets and 1 catheter into the liquid phase). The flask was partially filled with 0.9% normal saline and a stoppered glass pipette was inserted into the bottom of the liquid phase for injection of isoflurane. A second egress pipette allowed egress of gas from the closed container. 2% isoflurane solution in oxygen at 2 L/min was injected through the pipette, saturating the 0.9% saline solution after approximately 10 minutes of injection. 5 mL was drawn from the saturated saline solution and administered to […] using the procedures outlined in Example I above. For study C, all animals were prepared as for experiments A and B. The inventors injected 4 animals with 5 microliter of dissolved isoflurane solution (as prepared in 0030) via intrathecal catheter. Note, control (baseline) latency to paw withdrawal is different in Study C due to a different intensity of heat lamp used. Each animal serves as its own control in study C. Study C Data is presented here: in seconds to paw withdrawal to heat source. Table and graphic format.

Data set [4] can be described thus: Observation of adverse effects and recovery after intrathecal injection. Format: in vivo, rat. The conditions noted are these: intrathecal injection of 2 microliters, rats. The method, then:
These rats were then allowed time to recover from their intrathecal injection. There were no apparent adverse effects such as respiratory depression, cardiac, or neurological compromise. At 30 minutes after the injection, the rats were tested again, according to grouping:
This study also shed some light into the safety of intrathecally delivering active agent gases.

Molecules are shown by their SMILES. Several values for one entry are separate records, joined by “and”; a condition that tells them apart may be missing. Identical values can stand only once.

For `FC(F)OC(Cl)C(F)(F)F` (stereo not shown) [isoflurane, 1-chloro-2,2,2-trifluoroethyl difluoromethyl ether], the “analgesic effect (thermal latency time)” value in data set [1] was “analgesic effect”. Also, the “maximal possible effect (MPE)” value in data set [2] (10% v/v isoflurane in ACSF, 10 μl intrathecal (1.46 mg), 10 minutes after injection, cutoff 20 seconds) is on record as around 34%. Further, in data set [2] (isoflurane in ACSF 10% v/v, 10 μL intrathecal, 1.46 mg dose), the “analgesia (hind paw withdrawal threshold to radiant heat)” value was “resulted in analgesia”. In data set [3] (5 min, mean of all readings (control mean 3.875)), the “seconds to paw withdrawal to heat source, 5 MIN, mean” value amounted to 14.82 s. In data set [3] (5 min, single readings per rat), the “seconds to paw withdrawal to heat source, 5 MIN” value was 14.2 seconds and 20 seconds (3×) and 16 seconds and 9.8 seconds and 11.8 seconds (2×) and 9.1 seconds and 11 seconds and 15 seconds and 19.5 seconds and 10.9 seconds and 12.6 seconds and 18.1 seconds and 17.3 seconds. In data set [3] (10 min, mean of all readings), the “seconds to paw withdrawal to heat source, 10 MIN, mean” value came to 9.181 s. In data set [3] (10 min, single readings per rat), the “seconds to paw withdrawal to heat source, 10 MIN” value was 12.2 seconds and 12 seconds (2×) and 9.1 seconds and 8.9 seconds and 8.8 seconds and 7.8 seconds and 10.2 seconds and 8.1 seconds and 5.4 seconds and 9 seconds (3×) and 6.8 seconds and 9.9 seconds and 8.7 seconds. Further, the “seconds to paw withdrawal to heat source, 15 MIN, mean” value in data set [3] (15 min, mean of all readings) was 7.375 s. In data set [3] (15 min, single readings per rat), the “seconds to paw withdrawal to heat source, 15 MIN” value is 6.1 s and 7.1 s and 4.8 s and 5.2 s and 7.9 s and 6.4 s and 6.9 s and 4.3 s and 7.6 s and 7.3 s and 8.8 s and 7 s and 10.4 s and 9.4 s and 5.4 s and 13.4 s. Besides, the “seconds to paw withdrawal to heat source, 30 MIN, mean” value in data set [3] (30 min, mean of all readings) was found to be 5.9375 s. For the same compound, in data set [3] (30 min, single readings per rat), the “seconds to paw withdrawal to heat source, 30 MIN” value is 5.2 seconds (2×) and 6.1 seconds and 5.8 seconds and 6.5 seconds and 4.9 seconds (2×) and 4.3 seconds and 4.7 seconds and 3.8 seconds and 6.8 seconds and 7.2 seconds and 8.2 seconds and 6.9 seconds and 8.1 seconds and 6.4 seconds. The “seconds to paw withdrawal to heat source, 60 MIN, mean” value in data set [3] (60 min, mean of all readings) is 4.456 s. Besides, the “seconds to paw withdrawal to heat source, 60 MIN” value in data set [3] (60 min, single readings per rat) was 4.2 seconds (2×) and 3.5 seconds (3×) and 3.3 seconds and 3.8 seconds (3×) and 6.1 seconds and 5.8 seconds and 5.1 seconds and 4.9 seconds and 4.7 seconds and 7 seconds and 4.1 seconds. Also, the adverse effects entry in data set [4] is given as “None of the rats in the study experienced adverse effects”.
In the case of `FCOC(C(F)(F)F)C(F)(F)F` [sevoflurane], the “analgesic effect (thermal latency time)” value in data set [1] was “analgesic effect”. Besides, the adverse effects result in data set [4] is “None of the rats in the study experienced adverse effects”.

For the origin of these results see US10357464B2, “Methods for delivering volatile anesthetics for regional anesthesia and/or pain relief” (The Board of Regents of the University of Texas System, priority 2006, dated 2019).
